This note sets out measurements from patent publication US4880825A, “Mitomycin derivatives” (Kyowa Hakko Kogyo Kabushiki Kaisha, priority 1987, dated 1989).

What is called LD50 is the dose expected to kill half of the subjects tested. Read a low LD50 as a more toxic substance. Broadly, the MIC is the smallest concentration in the dilution series that meets the test's criterion for growth inhibition. Higher therefore signals a less susceptible organism.

Series [1] is described as follows: Acute toxicity (LD50, Behrens-Koerber method). Particulars: mouse, in vivo, ip; ddy mice, abdominally administered once, 14 days observation. On the procedure:
From the death ratio of each test group of animals, acute toxicity (LD50) was calculated by the "Behrens-Koerber" method.

Series [2] concerns Staphylococcus aureus ATCC 6538P. As to the kind of experiment: Anti-bacterial activity, minimum inhibitory concentration by agar dilution method at pH 7.0 (SA). In kind it is cell-based. The note with it: ATCC6538P. The text has this:
(§1) In this table, the microorganisms are abbreviated as follows:
SA: Staphylococcus aureus ATCC 6538P
For orientation: In agar dilution, organisms are placed on agar that contains the substance at set levels.

In series [3] the test system is Proteus vulgaris ATCC 6897. As to the kind of experiment: Anti-bacterial activity, minimum inhibitory concentration by agar dilution method at pH 7.0 (PV). In kind it is cell-based. Particulars: ATCC6897.
Description: as §1
PV: Proteus vulgaris ATCC 6897

The next series concerns Leukemia P-388. Description: Effects upon Leukemia P-388 (survival of CDF1 mice implanted with P-388 cells). It counts as in vivo, mouse (CDF1). The note with it: abdominally once; for ILS(%) (Increased Life Span): 24 h after implantation, CDF1 mice, 33 days, ratio to untreated control survival; for ILS* (ratio of ILS % of test compound to ILS % of mitomycin C): relative to mitomycin C as control under the same conditions. As to the method:
P-388 ascites tumour was abdominally implanted into a mouse (DBA/2). 7 days after this, ascitic fluid was collected from the tumour-carrying mouse. The number of P-388 cells was counted to prepare a cell suspension containing 5×10^6 cells/ml using a sterilized physiological saline solution. 0.2 ml of the cell suspension containing 1×10^6cells was abdominally implanted into each mouse of CDF1 strain (body weight 20-25 g). […] The effect of the test compound was evaluated with reference to the ILS % (Increased Life Span) (the ratio of the average survival days of the test animals to the average survival days of the control group of untreated animals). The following Table 5 indicates ILS* (the ratio of ILS % obtained using each of the test compounds to the corresponding ILS % obtained using mitomycin C as control under the same conditions).

Series [4] deals with Streptococcus faecalis ATCC 10541. As to the kind of experiment: Anti-bacterial activity, minimum inhibitory concentration by agar dilution method at pH 7.0 (SF). In kind it is cell-based. The note with it: Enterococcus faecalis, ATCC10541.
Description: as §1
SF: Streptococcus faecalis ATCC 10541

The subject of series [5] is Klebsiella pneumoniae ATCC 10031. Description: Anti-bacterial activity, minimum inhibitory concentration by agar dilution method at pH 7.0 (KP). It counts as cell-based. The note with it: ATCC10031.
Description: as §1
KP: Klebsiella pneumoniae ATCC 10031.

Structures are written as SMILES. In brackets after ≈: the same amount, converted by molar mass.

In the case of `CC1C(=O)C2=C(C(=O)C13OCCO3)[C@H](COC(N)=O)[C@@]1(O)[C@@H]3[C@H](CN21)N3C` (stereo partly shown) [Compound 2, 7-demethoxy-6,7-dihydro-7-ethylenedioxymitomycin B], in series [1], the median lethal dose (LD50) at 336 h worked out at 7.5 mg/kg. The MIC amounted to 2.5 µg/mL (≈ 6.59 µM) in series [2], 0.63 µg/mL (≈ 1.66 µM) in series [3], 2.6 µg/mL (≈ 6.85 µM) in series [4] and 1.3 µg/mL (≈ 3.43 µM) in series [5]. Moreover, the “ILS(%) (Increased Life Span)” value with Leukemia P-388 (dose 5 mg/kg) is 173%. In the series on Leukemia P-388 (dose 5 mg/kg), the “ILS* (ratio of ILS % of test compound to ILS % of mitomycin C)” value is recorded as 1.06.

For the molecule `CO[C@@]12[C@H](COC(N)=O)C3=C(C(=O)C(C)(Cl)C4(OCCO4)C3=O)N1C[C@@H]1N[C@@H]12` (stereo partly shown) [Compound 8, 6-chloro-7-demethoxy-6,7-dihydro-7-ethylenedioxymitomycin A], the LD50 at 336 h in series [1] turned out to be 3.75 mg/kg. For the same molecule, the MIC in series [2] was found to be 0.039 µg/mL (≈ 0.0942 µM); in series [3] it was 1.3 µg/mL (≈ 3.14 µM); in series [4], 1.3 µg/mL (≈ 3.14 µM); in series [5] it was 0.039 µg/mL (≈ 0.0942 µM). Also, in the series on Leukemia P-388 (dose 1.56 mg/kg), the “ILS(%) (Increased Life Span)” value is reported as more than 164%. Further, the “ILS* (ratio of ILS % of test compound to ILS % of mitomycin C)” value with Leukemia P-388 (dose 1.56 mg/kg) is listed as more than 0.93.

As to `CO[C@@]12[C@H](COC(N)=O)C3=C(C(=O)C(C)C4(OCCO4)C3=O)N1C[C@H]1[C@@H]2N1C` (stereo partly shown) [Compound 3, 7-demethoxy-6,7-dihydro-7-ethylenedioxymitomycin F], in series [1], the LD50 at 336 h turned out to be 4.5 mg/kg. Moreover, the MIC in series [2] turned out to be 0.31 µg/mL (≈ 0.788 µM); in series [3], 0.63 µg/mL (≈ 1.6 µM); in series [4], 0.31 µg/mL (≈ 0.788 µM); in series [5], 0.31 µg/mL (≈ 0.788 µM). Moreover, the “ILS(%) (Increased Life Span)” value with Leukemia P-388 (dose 2.5 mg/kg) is 153%. For the same molecule, the “ILS* (ratio of ILS % of test compound to ILS % of mitomycin C)” value with Leukemia P-388 (dose 2.5 mg/kg) came to 0.77.

`CO[C@@]12[C@H](COC(N)=O)C3=C(C(=O)C(C)(Br)C4(OCCO4)C3=O)N1C[C@H]1[C@@H]2N1C` (stereo partly shown) [Compound 10, 6-bromo-7-demethoxy-6,7-dihydro-7-ethylenedioxymitomycin F]: the MIC in series [2] amounted to 0.63 µg/mL (≈ 1.33 µM); in series [3], 5 µg/mL (≈ 10.6 µM); in series [4], 2.5 µg/mL (≈ 5.29 µM); in series [5], 5 µg/mL (≈ 10.6 µM).

For the molecule `CO[C@]12[C@@H]3[C@H](CN1C1=C(C(=O)C4(OCCO4)C(C)C1=O)[C@@H]2COC(N)=O)N3C` (stereo partly shown) [Compound 4, 7-demethoxy-6,7-dihydro-7-ethylenedioxymitomycin J], the LD50 at 336 h in series [1] stood at 6 mg/kg. In addition, the MIC in series [2] came to 0.63 µg/mL (≈ 1.6 µM); in series [3], 0.63 µg/mL (≈ 1.6 µM); in series [4], 0.31 µg/mL (≈ 0.788 µM); in series [5] it was 0.31 µg/mL (≈ 0.788 µM). Besides, in the series with Leukemia P-388 (dose 5 mg/kg), the “ILS(%) (Increased Life Span)” value amounted to 180%. Besides, in the series on Leukemia P-388 (dose 5 mg/kg), the “ILS* (ratio of ILS % of test compound to ILS % of mitomycin C)” value was 1.16.

The molecule `CN1[C@H]2[C@@H]1CN1C3=C(C(=O)C4(OCCO4)C(C)(Cl)C3=O)[C@H](COC(N)=O)[C@@]21O` (stereo partly shown) [Compound 9, 6-chloro-7-demethoxy-6,7-dihydro-7-ethylenedioxymitomycin B] displayed a median lethal dose (LD50) at 336 h in series [1] of 15 mg/kg. In addition, the MIC in series [2] was more than 40 µg/mL; in series [3], more than 40 µg/mL; in series [4] it was 10 µg/mL (≈ 24.2 µM); in series [5] it was 5 µg/mL (≈ 12.1 µM). Also, the “ILS(%) (Increased Life Span)” value in the series with Leukemia P-388 (dose 12.5 mg/kg) stood at 159%. The “ILS* (ratio of ILS % of test compound to ILS % of mitomycin C)” value with Leukemia P-388 (dose 12.5 mg/kg) is 1.13.

With `CO[C@@]12[C@H](COC(N)=O)C3=C(C(=O)C(C)C4(OCCO4)C3=O)N1C[C@@H]1N[C@@H]12` (stereo partly shown) [Compound 1, 7-demethoxy-6,7-dihydro-7-ethylenedioxymitomycin A], in series [1], the LD50 at 336 h worked out at 0.7 mg/kg. The MIC in series [2] stood at 0.039 µg/mL (≈ 0.103 µM); in series [3] it was 0.0098 µg/mL (≈ 0.0258 µM); in series [4], 0.078 µg/mL (≈ 0.206 µM); in series [5] it was 0.0049 µg/mL (≈ 0.0129 µM). In addition, in the series with Leukemia P-388 (dose 0.39 mg/kg), the “ILS(%) (Increased Life Span)” value was found to be 169%. Moreover, the “ILS* (ratio of ILS % of test compound to ILS % of mitomycin C)” value in the series with Leukemia P-388 (dose 0.39 mg/kg) was 1.00.
